Data: PubChem BioAssay (NCI)
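Interpolation was linear, between the two tested concentrations surrounding the appropriate level; five concentrations were tested over 48 hours in 96-well plates. GI50: concentration for 50% inhibition of growth. TGI is the concentration that stops growth completely.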

Tested on: MDA-MB-468 breast
Experiment: inhibition of tumour cell growth, NCI panel, 48 h

| Compound | GI50 | TGI |
| --- | --- | --- |
| O=C1c2cc3c(cc2-c2c1c1cc(F)c(F)cc1c(=O)n2CCCn1ccnc1)OCO3 | 20.5 nM | 90.7 nM |
| Cc1cccc(N2C(=O)/C(=C/C(Cl)=C/c3ccc([N+](=O)[O-])cc3)SC2=S)c1C | 1690 nM | 4250 nM |
| COc1cc(C2CC(c3ccc(Nc4nc(NCCO)nc(NCCO)n4)cc3)=NN2c2cc(Cl)cc(Cl)c2)cc(OC)c1OC (stereo not drawn) | 1680 nM | 4480 nM |
| C/C(=N/NC(=S)Nc1ccccc1)c1nc2ccc(Cl)cc2[nH]1 | 181 nM | 776 nM |
